Results published in US20090182055A1, “FUNGICIDAL AGENT CONTAINING N-CHLOROTAURINE AND USE THEREOF” (priority 2000, published 2009).

Legend:
[1] = treatment of rhinosinusitis patients by nasal catheter rinsing; assay type: in vivo, human
From the text: Treatments with traditional fungicidal agents have on the contrary previously led to no success.
The importance of the agent lies, among other things, in the fact that, in the case of the mucus tissue polyps occurring in rhinosinusitis, regression could be observed so that the previously successful standard therapy, namely operative removal, can be avoided by the use of the agent according to the invention.
A person suffers from chronic rhinosinusitis with clear swelling of the mucus membranes in both maxillary sinuses with retention of secretion on the left, in ethmoid bone cells, sphenoidal sinus, and in the left frontal sinus. Labored nasal respiration. For 2 1/2 months increasing headaches at the back of the head, no improvement on antibiotic therapy.
The treatment with 1% NCT-Na took place over a total of 4 weeks, 3 times weekly, and included 12 treatments in all. Each time a 10-ml NCT-Na solution was applied by means of a nasal catheter (YAMIK) over a period of time of 12 minutes. Thereafter the rinsing solution was suctioned off.
patient suffered from chronic rhinosinusitis for ca. 1 year with swelling of the mucus membranes and increased secretion in the nasal cavity and all its adjacent cavities, strong polyposis and loss of the sense of smell.

[2] = treatment of patients with ulcus cruris with saturated swabs; assay type: in vivo, human; conditions: Example 4, 1% NCT-Na versus 1% chloramine T control group
Method: A group of 25 patients who suffered from ulcus cruris were treated. The treatment was done with swabs which were saturated with an aqueous solution of 1% NCT-Na (test group, 14 patients) or 1% chloramine T (control group, 11 patients) and applied directly to the ulcers and left there. The treatment was done over 5-14 days. The swabs were changed twice daily.

[3] = tolerability in vivo at various application sites; conditions: eye, middle ear, outer ear, skin ulcers, oral cavity, bladder
[4] = treatment of patients with otitis externa with saturated strips; assay type: in vivo, human; conditions: changed daily
Method: A group of 10 patients who suffered from otitis externa with affliction of the auditory canal were treated. For treatment, 12 cm long strips (tampons by Rauscher) were placed into the external auditory canal. The test group (5 persons) was treated with strips which were saturated with 1-ml 1% NCT-Na, the control group (5 persons) with strips which were saturated with 1-ml otosporin (content per ml: 10,000 IU polymyxin B sulfate, 3.5 mg neomycin as neomycin sulfate, 10 mg hydrocortisone).
The treatment was done over 5 days. The strips were changed daily.

[5] = tested on: aspergillus, penicillum, fusarium, and candida in nasal mucus; experiment: kill-off time in vitro of fungi in nasal mucus; assay type: cell-based; conditions: 1% NCT-Na added to nasal mucus (diluted 1:10) of rhinosinusitis
Method: In the case of rhinosinusitis various species of fungus were found in the nasal mucus, e.g., aspergillus, penicillum, fusarium, and candida. If (diluted 1:10) 1% NCT-Na is added to this nasal mucus, then the kill-off time in vitro is less than 30 minutes.

SMILES: O=S(=O)(O)CCNCl [NCT-Na, N-chlorotaurine]
- formation of secretion ([1]; Example 1, 1% NCT-Na, after 7 treatments): strong decline
- nasal respiration ([1]; Example 1, 1% NCT-Na, after 9 treatments): clearly improved
- pains ([1]; Example 1, person, 1% NCT-Na 10 ml, 3 times weekly, after the second application): complete remission of the pains
- polyposis nasi ([1]; Example 2, 1% NCT-Na, at the end of the treatments (12 treatments, 4 weeks)): unambiguous regression
- sense of smell ([1]; Example 2, patient, 1% NCT-Na 10 ml, 3 times weekly, after the sixth application): substantial restoration
- symptoms of rhinosinusitis (pains, head pressure, loss of sense of smell, increased secretion, polyp formation) ([1]; trials with rhinosinusitis patients, treatment of internal nasal surfaces with NCT-Na solution): improved substantially
- pains after application of the solution [2]: significantly less pains
- tolerability in vivo [3]: tolerated outstandingly
- tolerability ([4]; Example 3, strips saturated with 1 ml 1% NCT-Na in external auditory canal, 5 days): well tolerated
- period until healing, on average ([4]; Example 3, strips saturated with 1 ml test solution): 3 days
- kill-off time in vitro [5]: less than 30 minutes
